Source: patent US20090054358A1, “Flt3 inhibitors for immune suppression” (THE JOHN HOPKINS UNIVERSITY, priority 2004, published 2009)
Entries after “also recorded” stand apart in the source; their conditions may differ.

What was measured:
[1] = test system: Dendritic cells (CD11c+ cells); experiment: Apoptosis, survival of mature bone-marrow DCs treated with FLT3 inhibitors (FACS, Annexin V); type: cell-based, mice; settings: for apoptosis in DCs (Annexin V binding): 24 hours; for survival and stimulation of the DCs: mature DCs, dose-response analysis, in the presence of GM-CSF+/−FL
Procedure: The survival and function of the DCs was investigated when exposed to FLT3 inhibitors. Mature DCs were incubated in a dose-response analysis to CEP 701, 5214 and AG 1296 in the presence of GM-CSF+/−FL.
Bone marrow (BM) was flushed from the extremities of mice with PBS, red blood cells (RBCs) were lysed in hypotonic buffer, and after washing the cells were plated at 2×10^6 cells/ml in GM-CSF (1000 U/ml) or GM+FL (100 ng/ml) containing medium. On days 2, 4, and 6, non-adherent cells were removed and adherent cells were washed prior to the addition of fresh medium. On day 8, non-adherent mature DCs were harvested, and replated in the absence or presence of CEP-701 at 5 or 50 nM. After 24 hours, cells were then stained for FACS analysis. CD11c+ cells were assessed for MHC class II expression and Annexin V binding (FIG. 1A).
After washing, the cells were plated at 2×10^6 cells/ml in GM-CSF (1000 U/ml)+FL (100 ng/ml) containing medium. On days 2, 4, and 6, non-adherent cells were removed and adherent cells were washed prior to the addition of fresh medium. On day 8, non-adherent mature DCs were harvested, and replated in the absence or presence of AG 1296. After 24 hours, cells were stained for FACS analysis. Dendritic cells (CD11c+ cells) were assessed for CD86 expression and Annexin V binding (FIG. 1B). […] For DCs to activate T cells, they present antigen bound to MHC molecules and express co-stimulatory proteins on their surfaces.

[2] = test system: co-stimulatory molecules B7.2 (CD 86) and B7-DC; experiment: Expression of co-stimulatory molecules B7.2 (CD 86) and B7-DC on DCs; type: cell-based, Murine; settings: AG1296 at 0, 1, or 10 μM
Procedure: FIG. 6 depicts the treatment of DCs with AG1296 at either 0, 1, or 10 μM and then analyzed for the expression of co-stimulatory molecules B7.2 (CD 86) and B7-DC.
(§1) To investigate the role of FL/FLT3 stimulation in regulating costimulatory protein expression by DC, […] or GM-CSF plus FL, were analyzed by Northern blotting for expression of B7-DC, a member of the B7 family of co-stimulatory molecules. […] The inhibition of FLT3 signaling led to a down-regulation of B7-DC as well as B7.2 (CD 86) in these DCs (FIG. 6).

[3] = test system: T cells; experiment: DC-stimulated proliferation of T cells (3H incorporation); type: cell-based, mice
Procedure: (§2) FLT3 inhibition decreases DC-based proliferation of T cells. For these experiments, DCs were generated as above from BALBc mice. The cells were left untreated or were treated with CEP701 and then plated with C57BL/6 splenocytes at the ratios shown. After 3 days, ^3H was added, and the proliferation determined. […] In FIG. 2b, BALB/c splenocytes were substituted for DCs, in order to test the inhibition of CEP701 on a standard mixed lymphocyte reaction (MLR). […] To determine whether T cell stimulatory response would be inhibited as a result of exposure to AG1296, two different T cell proliferative assays were conducted. […] In this standard mixed lymphocyte reaction, equal numbers of stimulator and responder cells (10^6 of each) were mixed in a 96 well plate, incubated for 4 days, pulsed with 3H-thymidine, and proliferation was determined by analyzing incorporation of tritium. DC-stimulated proliferation was also determined by incubating BM derived DCs (day 8, as above) at a ratio of 1:10 with responder allogeneic splenocytes, in the presence (10 μm) or absence of AG1296.

[4] = test system: BALB/c splenocytes; experiment: Standard mixed lymphocyte reaction (MLR); type: cell-based, mice
Procedure: as §2

[5] = test system: T cells; experiment: Direct stimulation of T cells on anti-CD3 plates with anti-CD28 antibody; type: cell-based; settings: anti-CD3 coated plates, 2 days, 3H
Procedure: T cells were then stimulated with anti-CD28 antibody. After 2 days, 3H was added, and the proliferation determined.

[6] = test system: CD11c and NK cell populations; experiment: Immune cell populations in spleens and lymph nodes of treated mice (FACS); type: in vivo, BALB/c mice; settings: 20 mg/kg twice a day for 5 days
Procedure: BALB/c mice were treated with 20 mg/kg of CEP701 or vehicle twice a day for 5 days, and then were analyzed for their immune populations. Spleens and lymph nodes were harvested and collagenase digested to release DCs from the stroma. Cells were then washed and analyzed by FACS for the presence of T (CD3+/DX5−), NK (CD3−,DX5+), B (B220+, CD11c−) or DCs (CD11c+).

[7] = test system: transgenic T cells that are specific for HA; experiment: In vivo autoreactive T cell expansion in HA transgenic (137) mice given 6.5 T cells; settings: 137 mice treated 3 days prior to and 5 days after T cell transfer
[8] = Established experimental autoimmune encephalomyelitis (EAE), MOG 35-55; type: in vivo, C57BL/6 mice; settings: 20 mg/kg, started within one day of initial symptoms, scored daily, blinded
Procedure: C57BL/6 mice were injected with 100 micrograms of the Established Experimental Allergic Encephalitomyelitis (EAE) inducing peptide MOG 35-55 in CFA with 400 micrograms of Mycobacterium tuberculosis. On the day of immunization and 48 hours later, mice were boosted with pertussis toxin, following standard protocols. […] Scores were as follows: 0 (no symptoms), 0.5 (partial loss of tail tonicity), 1 (full loss of tail tonicity), 2 (affected gait), 2.5 (partial hind limb paralysis) 3 (full hind limb paralysis) 4 (front and hind paralysis) 5 (moribund). 10 mice/group were treated in the study shown.

[9] = test system: axons; experiment: Degenerating axonal fibers in medial dorsal column of MOG-immunized mice; type: in vivo; settings: cervical level 5, 210 days post disease induction, versus vehicle
Description: In reference to FIG. 10, intact brain and spinal cords were removed from mice that were immunized with MOG peptide, and either treated with the vehicle control or CEP-701 after symptom onset. Following treatment and scoring, the mice were kept for an additional 2 months, then sacrificed and the CNS prepared for evaluation by preservation in formalin. Thin plastic sections ([…]) were generated from cervical level 5, followed by staining in Toluidine blue and axons were visualized. Total axon numbers and actively degenerating fibers in a predefined area of the medial dorsal column were enumerated by an experienced examiner in a blinded fashion. Plots show the number of degenerating axonal fibers in the defined field area for the sections of CEP-701 treated mice compared to vehicle control mice at 210 days post disease induction.

[10] = test system: B7-DC; experiment: Northern blot for hB7-DC in human bone marrow cells treated with cytokines; type: cell-based; settings: FL added to GM-CSF
Procedure: as §1

Molecule: COc1cc2ncc(-c3ccccc3)nc2cc1OC [AG1296]
- apoptosis in DCs (Annexin V binding) ([1]; AG 1296 at 0, 1, and 10 μM, DCs generated in GM-CSF + FL): confirmed; also recorded: induced apoptosis in DCs in a dose-dependent fashion
- apoptosis in DCs (Annexin V binding) ([1]; AG 1296 at 0, 1, and 10 μM, DCs generated in GM-CSF + FL, listed as AG 1296): induction of apoptosis in a significant fraction of the DCs
- survival and stimulation of the DCs [1]: decrease in survival and stimulation
- expression of co-stimulatory molecule B7-DC on DCs [2]: down regulated
- expression of co-stimulatory molecule B7.2 (CD 86) on DCs [2]: down regulated
- T cell proliferation induced by DCs ([3]; BM derived DCs 1:10 with allogeneic splenocytes, AG1296 10 μm): decrease in T cell proliferation; also recorded: inhibited
- mixed lymphocyte reaction proliferation ([4]; allogeneic spleen cells, 10^6 each, 4 days, 3H-thymidine, AG1296 10 μm): inhibition

Molecule: CC(C)OCc1ccc2c(c1)c1c3c(c4c(c1n2CCCO)Cc1ccccc1-4)C(=O)NC3 [CEP-5214]
- apoptosis in DCs ([1]; CEP-5214, data not shown): confirmed
- survival and stimulation of the DCs [1]: decrease in survival and stimulation

Molecule: C[C@]12O[C@H](C[C@]1(O)CO)n1c3ccccc3c3c4c(c5c6ccccc6n2c5c31)CNC4=O [CEP-701]
- apoptosis in DCs (Annexin V binding) ([1]; CEP-701 at 5 or 50 nM, DCs generated in GM-CSF alone or GM-CSF and FL): induced apoptosis; also recorded: induction of apoptosis in a significant fraction of the DCs
- survival and stimulation of the DCs [1]: decrease in survival and stimulation
- DC-based proliferation of T cells ([3]; BALBc DCs treated with CEP701, plated with C57BL/6 splenocytes, 3 days, 3H): robust effect on decreasing proliferation of T cells
- mixed lymphocyte reaction (MLR) response ([4]; BALB/c splenocytes substituted for DCs, CEP701): inhibited
- proliferation of directly stimulated T cells [5]: does not inhibit their proliferation
- B (B220+, CD11c−) cell population [6]: no significant change
- DC (CD11c+) population [6]: decreases
- NK (CD3−,DX5+) population [6]: decreases
- T (CD3+/DX5−) cell population [6]: no significant change
- autoreactive T cell expansion, as measured by thy 1.1 ([7]; listed as CEP 701): decreases an in vivo autoreactive immune response
- autoreactive T cell expansion, as measured by thy 1.1 ([7]; listed as CEP701): decrease in the autoreactive T cell expansion
- EAE clinical score (0-5) [8]: lower scores
- number of degenerating axonal fibers (neurodegeneration) [9]: decrease in neurodegeneration

B1: FL: FLT3 Ligand (FL), ligand that stimulates the FLT3 receptor (protein, UniProt P49771 27-235, looked up)
Fms-related tyrosine kinase 3 …: TQDCSFQHSPISSDFAVKIRELSDYLLQDYPVTVASNLQDEELCGGLWRLVLAQRWMERLKTVAGSKMQGLLERVNTEIHFVTKCAFQPPPSCLRFVQTNISRLLQETSEQLVALKPWITRQNFSRCLELQCQPDSSTLPPPWSPRPLEATAPTAPQPPLLLLLLLPVGLLLLAAAWCLHWQRTRRRTPRPGEQVPPVPSPQDLLLVEH
- B7-DC expression (Northern blot) [10]: greatly up-regulates
